Source: patent US4395416A, “1-Spiro isobenzofuranic and 1-spiro isobenzothiophenic derivatives the process for preparing the same and their use in therapeutics” (Delalande S.A., priority 1981, dated 1983)

Assays:
[1] = Acute toxicity (mice - LD 50); details: mouse, in vivo, ip; for mortality: at 400 mg/kg, read-out: Acute toxicity, % at 400 (mg/kg/i.p.), printed in the LD 50 column
mice [2] = assay: Protection against death induced by intravenous bicuculline (anti-convulsion activity); type: in vivo; details: Mus musculus, ip, intravenous injection of 0.7 mg/kg of bicuculline, read-out: Efficient doses 50 - ED 50 protecting against death induced by Bicuculline
mice [3] = assay: Phenylbenzoquinone test (analgesic activity); type: in vivo; details: Mus musculus, ip, read-out: Phenylbenzoquinone test - ED 50
Source text: The analgesic activity was shown up on mice by interperitoneal injection of the compounds of formula (I) and their salts using the phenylbenzoquinone test according to the method described by E. SIEGMUND in Proced. Soc. Exp. Biol. and Med. 95, 729 (1957).

SMILES | LD50 [1] | ED50 (mice [2]) | ED50 (mice [3]) | mortality [1]
CN1CCCC12SC(=O)c1ccccc12 (stereo not shown) [Code number 1] | 400 mg/kg | 7 mg/kg | 30 mg/kg | 
CCCN1CCCC12SC(=O)c1ccccc12 (stereo not shown) [Code number 4] | > 400 mg/kg | 47 mg/kg | 35 mg/kg | 
CN1CCCCC12SC(=O)c1ccccc12 (stereo not shown) [compound 2] | > 400 mg/kg | 100 mg/kg | 50 mg/kg | 
CCN1CCCC12SC(=O)c1ccccc12 (stereo not shown) [compound 3] | > 400 mg/kg | 26 mg/kg |  | 
CN1CCCC12SC(=O)c1ccc(Cl)cc12 (stereo not shown) [compound 5] | > 400 mg/kg | 80 mg/kg |  | 
CN1CCCC12SC(=O)c1cc(Cl)ccc12 (stereo not shown) [compound 6] | > 400 mg/kg | 8 mg/kg |  | 
CCN1CCCC12SC(=O)c1cc(Cl)ccc12 (stereo not shown) [compound 7] | > 400 mg/kg | 10 mg/kg |  | 
COc1ccc2c(c1)C1(CCCN1C)SC2=O (stereo not shown) [compound 8] | > 400 mg/kg | 100 mg/kg |  | 
COc1ccc2c(c1)C(=O)SC21CCCN1C (stereo not shown) [compound 9] | > 400 mg/kg | 40 mg/kg |  | 
COc1cc2c(cc1OC)C1(CCCN1C)SC2=O (stereo not shown) [compound 10] | > 400 mg/kg | 30 mg/kg |  | 
CN1CCCC12SC(=O)c1cc(F)ccc12 (stereo not shown) [compound 16] | > 400 mg/kg | 25 mg/kg |  | 
CN1CCCC12OCc1ccccc12 (stereo not shown) [compound 21] | 275 mg/kg | 15 mg/kg | 100 mg/kg | 
CN1CCCC12SCc1ccccc12 (stereo not shown) [compound 22] | 290 mg/kg | 34 mg/kg |  | 
O=C1OC2(CCCC2)c2ccccc21 [compound 23] | > 400 mg/kg | 76 mg/kg |  | 
S=C1OC2(CCCC2)c2ccccc21 [compound 24] | > 400 mg/kg | 63 mg/kg | 46 mg/kg | 
CCCN1CCCC12SC(=O)c1cc(Cl)ccc12 (stereo not shown) [compound 34] |  | 11 mg/kg |  | 40%
CCCCN1CCCC12SC(=O)c1cc(Cl)ccc12 (stereo not shown) [compound 35] |  | 26 mg/kg |  | 60%
CC(C)CN1CCCC12SC(=O)c1cc(Cl)ccc12 (stereo not shown) [compound 36] | > 400 mg/kg | 30 mg/kg |  | 
O=C1SC2(CCCN2c2ccccc2)c2ccccc21 (stereo not shown) [compound 37] | > 400 mg/kg | 100 mg/kg |  | 
O=C1SC2(CCCN2c2ccccc2)c2ccc(Cl)cc21 (stereo not shown) [compound 38] | > 400 mg/kg | 56 mg/kg |  | 
O=C1SC2(CCCN2c2ccc(Cl)cc2)c2ccccc21 (stereo not shown) [compound 39] | > 400 mg/kg | 62 mg/kg |  | 
O=C1SC2(CCCN2c2ccc(Cl)cc2)c2ccc(Cl)cc21 (stereo not shown) [compound 40] | > 400 mg/kg | 100 mg/kg |  | 
CN1CCCC12SC(=O)c1cc(Br)ccc12 (stereo not shown) [compound 41] | > 400 mg/kg | 29.5 mg/kg |  | 
CN1CCCC12SC(=O)c1cc3ccccc3cc12 (stereo not shown) [compound 42] | > 400 mg/kg | 34 mg/kg |  | 
CN1CCCC12OCc1cc(Cl)ccc12 (stereo not shown) [compound 43] | > 400 mg/kg | 27.5 mg/kg | 30 mg/kg | 
CN1CCCC12OC(c1ccccc1)c1ccccc12 (stereo not shown) [compound 44] | > 400 mg/kg | 45 mg/kg | 64 mg/kg | 
CN1CCCC12SCc1cc(Cl)ccc12 (stereo not shown) [compound 45] | > 400 mg/kg | 15 mg/kg |  | 
